Source: ChEMBL document CHEMBL4130547, “Targeted Isolation of Monoterpene Indole Alkaloids from Palicourea sessilis” (J Nat Prod, 2017)

Assays:
[1] = molecular target: Acetylcholinesterase (Electrophorus electricus, UniProt O42275); experiment: Inhibition of Electrophorus electricus AChE using acetylthiocholine iodide as substrate measured during 6 mins by Ellman's method
[2] = molecular target: Acetylcholinesterase (Electrophorus electricus) (UniProt O42275); experiment: Inhibition of Electrophorus electricus AChE at 50 uM using acetylthiocholine iodide as substrate measured after 10 mins by Ellman's method relative to control
Chain of Acetylcholinesterase (Electrophorus electricus) (O42275 24-633 limits assumed): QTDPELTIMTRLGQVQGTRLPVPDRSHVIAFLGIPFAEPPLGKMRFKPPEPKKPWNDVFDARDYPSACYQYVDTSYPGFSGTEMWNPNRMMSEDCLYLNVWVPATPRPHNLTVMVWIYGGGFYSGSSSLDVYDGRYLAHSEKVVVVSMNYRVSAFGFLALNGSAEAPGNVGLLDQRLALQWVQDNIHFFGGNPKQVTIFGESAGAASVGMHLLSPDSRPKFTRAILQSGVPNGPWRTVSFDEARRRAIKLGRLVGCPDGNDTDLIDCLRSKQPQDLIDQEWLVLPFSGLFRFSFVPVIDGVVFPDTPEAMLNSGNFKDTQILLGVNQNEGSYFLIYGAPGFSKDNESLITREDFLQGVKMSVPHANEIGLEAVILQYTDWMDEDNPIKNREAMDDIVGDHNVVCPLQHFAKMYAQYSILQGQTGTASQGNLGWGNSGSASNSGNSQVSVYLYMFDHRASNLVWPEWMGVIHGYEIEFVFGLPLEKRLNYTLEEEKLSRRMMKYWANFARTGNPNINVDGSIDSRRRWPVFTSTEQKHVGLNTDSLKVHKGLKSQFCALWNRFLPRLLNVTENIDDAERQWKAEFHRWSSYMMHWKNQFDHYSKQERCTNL

Chain of Acetylcholinesterase (O42275 whole entry): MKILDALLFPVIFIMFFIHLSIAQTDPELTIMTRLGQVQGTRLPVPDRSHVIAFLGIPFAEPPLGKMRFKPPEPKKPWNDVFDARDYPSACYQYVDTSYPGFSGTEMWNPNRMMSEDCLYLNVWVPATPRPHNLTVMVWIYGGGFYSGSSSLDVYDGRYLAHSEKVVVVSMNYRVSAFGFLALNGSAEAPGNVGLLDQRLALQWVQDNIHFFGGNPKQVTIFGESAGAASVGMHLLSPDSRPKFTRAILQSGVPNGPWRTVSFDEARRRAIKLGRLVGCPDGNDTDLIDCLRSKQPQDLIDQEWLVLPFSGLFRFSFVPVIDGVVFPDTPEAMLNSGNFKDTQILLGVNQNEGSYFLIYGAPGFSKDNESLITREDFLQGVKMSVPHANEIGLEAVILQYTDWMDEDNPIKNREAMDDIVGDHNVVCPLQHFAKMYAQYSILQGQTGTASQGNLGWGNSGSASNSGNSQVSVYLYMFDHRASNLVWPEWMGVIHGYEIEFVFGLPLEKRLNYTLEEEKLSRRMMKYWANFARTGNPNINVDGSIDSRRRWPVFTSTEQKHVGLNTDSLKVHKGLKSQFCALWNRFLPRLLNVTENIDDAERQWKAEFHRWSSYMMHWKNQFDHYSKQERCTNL

Row | SMILES | IC50 [1] [µM] | inhibition [2] [%]
1 | C=C[C@H]1CO[C@@H]2C[C@H]1Cc1c3[nH]c4ccccc4c3cc[n+]12 | 10 | 
2 | CNCCc1c[nH]c2ccccc12 |  | 49.8
3 | CN1CCC2(O)c3ccccc3NC12 (centres undefined) |  | 53.7
4 | C=C[C@H]1CO[C@@H]2C[C@H]1C(=O)c1c3[nH]c4ccccc4c3cc[n+]12 | 3.4 | 
